These results are taken from patent US10792282B2, “Protein kinase C inhibitors and uses thereof” (Rigel Pharmaceuticals, Inc., priority 2013, dated 2020).

For the assay, the system named is PKC mediated IL-2 production. The experiment in a line: IL-2 ELISA, human primary T cell, anti CD3+CD28+ (whole cell functional assay). It is filed as cell-based. The procedure:
Human primary T cells were prepared as follows. Fresh PBMC's from All Cells (Cat # PB002) were re-suspended in RPMI (RPMI-1640 with L-Glutamine; Mediatech, Inc., Herndon Va., cat. #10-040-CM) with 10% FBS and seeded into flasks and incubated at 37° C. for 2 hours to allow the monocytes to adhere. The non-adherent cells were then centrifuged and re-suspended in RPMI medium containing 40 U/ml IL2 and seeded into a flask pre-coated with 1 μg/ml aCD3 and 5 ug/ml aCD28 (Anti-Human CD3, BD Pharmingen Catalog #555336, Anti-Human CD28, Beckman Coulter Catalog # IM1376). The cells were stimulated for 3-4 days, then transferred to a fresh flask and maintained in RPMI (RPMI-1640 with L-Glutamine; Mediatech, Inc., Herndon Va., cat. #10-040-CM) with 10% FBS and 40 U/ml IL-2.
(§1) Human primary T cells (100,000 cells per well) were pre-incubated with or without test compound in RPMI-1640 with L-Glutamine and 10% FBS for 1 hour at 37° C. Cells were then stimulated by transferring them to round-bottom 96-well plates pre-coated with 1 μg/ml αCD3 and 5 μg/ml αCD28. For counter assay, cells were instead stimulated by adding 8× stock solutions of PMA and ionomycin in RPMI-1640 with L-Glutamine and 10% FBS (for final concentrations of 0.5 ng/ml PMA and 0.1 μM ionomycin, both from Calbiochem). Cells were incubated at 37° C. for 24 hours before 100 μL supernatants were harvested for quantification of IL-2 by ELISA using Human IL-2 Duoset ELISA Kit from R and D Systems, Cat. # DY202E.
Compounds 1-90 were tested in a whole cell functional assay for PKC mediated IL-2 production as follows. Human primary T cell isolation and culture: Human primary T cells were prepared as follows. Whole blood was obtained from a healthy volunteer, mixed 1:1 with PBS, layered on to Ficoll Hypaque (Amersham Pharmacia Biotech, Piscataway, N.J., Catalog #17-1440-03) in 2:1 blood/PBS:ficoll ratio and centrifuged for 30 minutes at 4° C. at 1750 rpm. The cells at the serum: ficoll interface were recovered and washed twice with 5 volumes of PBS. These freshly isolated human peripheral blood mononuclear cells were cultured in Yssel's medium containing 40 U/ml IL2 in a flask pre-coated with 1 μg/ml αCD3 and 5 μg/ml αCD28 (Anti-Human CD3, BD Pharmingen Catalog #555336, Anti-Human CD28, Beckman Coulter Catalog # IM1376). The cells were stimulated for 3-4 days, then transferred to a fresh flask and maintained in RPMI (RPMI-1640 with L-Glutamine; Mediatech, Inc., Herndon Va., cat. #10-040-CM) with 10% FBS and 40 U/ml IL-2. The primary T-cells were then washed twice with PBS to remove the IL-2.
as §1, with “Primary T cell stimulation and IL2 ELISA: Human primary” for “Human primary”, “compound in Yssel's medium for 1” for “compound in RPMI-1640 with L-Glutamine and 10% FBS for 1”, “ionomycin in Yssels (for final” for “ionomycin in RPMI-1640 with L-Glutamine and 10% FBS (for final”, “and 0.1 uM ionomycin, both” for “and 0.1 μM ionomycin, both”

[1] abbreviates: Homo sapiens, T-cell, 24 h, IL-2 production, human primary T cells stimulated with αCD3 and αCD28, 24 hours, IL-2 by ELISA, read-out: EC50.
[2] abbreviates: Homo sapiens, T-cell, human primary T cells stimulated with αCD3 and αCD28, IL-2 by ELISA, read-out: EC50 (blocked IL-2 production).
Setting [3] is: IL-2 production, human primary T cells stimulated with αCD3 and αCD28, 24 hours, IL-2 by ELISA, read-out: EC50.

Read-outs that look alike come from different tables or passages of the source. A value given as a limit tells only on which side of the number the result lay.

One may read the EC50 as the concentration needed to bring the measured effect to its halfway point. `Cn1nnn(-c2cc(Nc3ncc(F)c(NC4CCN5CCCC5C4)n3)c(F)cc2C2CC2)c1=O` (racemic) [Compound 27, (±)-1-(5-(5-fluoro-4-(octahydroindolizin-7-ylamino)pyrimidin-2-ylamino)-2-cyclopropyl-4-fluorophenyl)-4-methyl-1H-tetrazol-5(4H)one]: the EC50 was less than 10 µM under setting [1] and less than 10 µM under setting [2]. With `CC1C(Nc2nc(Nc3cc(OC(F)F)c(C4CC4)cc3F)ncc2F)CC(C)(C)N2CCCC12` (centres unmarked) [Compound 75], the half-maximal effective concentration (EC50) under setting [3] is less than 0.5 µM. Still for that read-out and setting: for `CC1(C)Oc2ccc(Nc3ncc(F)c(NC4CC5CCCN5C(C)(C)C4)n3)cc2-n2nnnc21` (centres unmarked) [Compound 1, N2-(4,4-dimethyl-4H-benzo[b]tetrazolo[1,5-d][1,4]oxazin-8-yl)-5-fluoro-N4-(octahydro-5,5-dimethylindolizin-7-amine)pyrimidine-2,4-diamine] the value was less than 0.5 µM. On to `Fc1cc(C2CC2)c(-n2cnnn2)cc1Nc1ncc(F)c(NC2CCN3CCCC3C2)n1` (racemic) [Compound 24, (±)-N^2-(4-cyclopropyl-2-fluoro-5-(1H-tetrazol-1-yl)phenyl)-5-fluoro-n^4-(octahydroindolizin-7-yl)pyrimidine-2,4-diamine], for which the EC50 was less than 0.5 µM under setting [1] and less than 10 µM under setting [2].

Regarding `CC1(C)CC(Nc2nc(Nc3cc(-n4cnnn4)c(C4CC4)cc3F)ncc2F)CC2CCCN21` (racemic) [Compound 54, (±)-N2-(4-cyclopropyl-2-fluoro-5-(1H-tetrazol-1-yl)phenyl)-5-fluoro-n^4-(octahydro-5,5-dimethylindolizin-7-yl)pyrimidine-2,4-diamine], the EC50 under setting [3] is less than 0.1 µM. For the compound `CC1(C)CC(Nc2nc(Nc3ccc(O[C@H]4CCOC4)c(C#N)c3)ncc2F)CC2CCCN21` (stereo partly drawn) [Compound 60, 2-((S)-tetrahydrofuran-3-yloxy)-5-(5-fluoro-4-(octahydro-5,5-dimethylindolizin-7-ylamino)pyrimidin-2-ylamino)benzonitrile], the EC50 is less than 0.5 µM under setting [1] and less than 10 µM under setting [2]. `Cn1nnn(-c2cc(Nc3ncc(F)c(NC4CC5CCCN5C(C)(C)C4)n3)ccc2OC2CCOCC2)c1=O` (racemic) [Compound 51, 1-(5-(5-fluoro-4-(octahydro-5,5-dimethylindolizin-7-ylamino)pyrimidin-2-ylamino)-2-(tetrahydro-2H-pyran-4-oxy)phenyl)-4-methyl-1H-tetrazol-5(4H)-one]: the EC50 under setting [1] is less than 0.5 µM and the EC50 under setting [2] is less than 10 µM. `CC1(C)C[C@H](Nc2nc(Nc3cc(-n4cnnn4)c(C4CC4)cc3F)ncc2F)C[C@@H]2CCCN21` (racemic) [Compound 53, (±)-N2-(4-cyclopropyl-2-fluoro-5-(1H-tetrazol-1-yl)phenyl)-5-fluoro-n^4-(octahydro-5,5-dimethylindolizin-7-yl)pyrimidine-2,4-diamine]: the EC50 under setting [2] was less than 10 µM. In the case of `CC(C)N1CCC(Oc2ccc(Nc3ncc(F)c(NC4CC5CCCN5C(C)(C)C4)n3)cc2OC(F)F)CC1` (centres unmarked) [Compound 9, (R/S, S/R, R/R, S/S)—N^2-(4-(1-isopropylpiperidin-4-yloxy)-3-(difluoromethoxy)phenyl)-5-fluoro-N^4-(octahydro-5,5-dimethylindolizin-7-yl)pyrimidine-2,4-diamine], under setting [3], the EC50 is less than 0.5 µM.

Consider `CC(C)N1CCC(Oc2ccc(Nc3ncc(F)c(NC4CC5CCCN5C(C)(C)C4)n3)cc2OC(F)F)CC1` (centres unmarked) [Compound 10, (R/S, S/R, R/R, S/S)—N^2-(4-(1-isopropylpiperidin-4-yloxy)-3-(difluoromethoxy)phenyl)-5-fluoro-N^4-(octahydro-5,5-dimethylindolizin-7-yl)pyrimidine-2,4-diamine], for which, under setting [3], the EC50 was less than 0.5 µM.

In the case of `CC1(C)CC(Nc2nc(Nc3ccc(O[C@@H]4CCOC4)c(C#N)c3)ncc2F)CC2CCCN21` (single isomer, unassigned) [Compound 58], the EC50 runs as follows: under setting [2], less than 10 µM; under setting [3], less than 10 µM. For `Cn1nnn(-c2cc(Nc3ncc(F)c(N[C@@H]4C[C@@H]5CCCN5C(C)(C)C4)n3)c(F)cc2O)c1=O` [Compound 89, 1-(5-(4-((7R,8aS)-octahydro-5,5-dimethylindolizin-7-ylamino)-5-fluoropyrimidin-2-ylamino)-4-fluoro-2-hydroxyphenyl)-4-methyl-1H-tetrazol-5(4H)-one], the EC50 under setting [1] was less than 10 µM and the EC50 under setting [2] was less than 10 µM. For the compound `Cn1nnn(-c2cc(Nc3ncc(C#N)c(N[C@@H]4C[C@@H]5CCCN5C(C)(C)C4)n3)ccc2OC(C)(C)CO)c1=O` [Compound 83, 4-((7R,8aS)-octahydro-5,5-dimethylindolizin-7-ylamino)-2-(4-(1-hydroxy-2-methylpropan-2-yloxy)-3-(4,5-dihydro-4-methyl-5-oxotetrazol-1-yl)phenylamino)pyrimidine-5-carbonitrile], the EC50 is less than 0.1 µM under setting [1] and less than 10 µM under setting [2]. In the case of `Cn1nnn(-c2cc(Nc3ncc(F)c(N[C@H]4C[C@H]5CCCN5C(C)(C)C4)n3)c(F)cc2C2CC2)c1=O` [Compound 18, 1-(5-(4-((7S,8aR)-octahydro-5,5-dimethylindolizin-7ylamino)-5-fluoropyrimidin-2-ylamino)-2-cyclopropyl-4-fluorophenyl)-4-methyl-1H-tetrazol-5(4H)-one], the EC50 runs as follows: under setting [1], less than 1 µM; under setting [2], less than 10 µM. Taken in the same sequence, the figures for `Cn1nnn(-c2cc(Nc3ncc(F)c(N[C@@H]4C[C@@H]5CCC(=O)N5C(C)(C)C4)n3)c(F)cc2C2CC2)c1=O` (racemic) [Compound 31, 1-(5-(5-fluoro-4-(hexahydro-5,5-dimethylindolizin-3(5H)-one-7-ylamino)pyrimidin-2-ylamino)-2-cyclopropyl-4-fluorophenyl)-4-methyl-1H-tetrazol-5(4H)-one] were less than 10 µM and less than 10 µM. In the case of `Cn1nnn(-c2cc(Nc3ncc(F)c(N[C@@H]4C[C@@H]5CCCN5C(C)(C)C4)n3)ccc2OC2CCOCC2)c1=O` [Compound 52, 1-(5-(5-fluoro-4-(octahydro-5,5-dimethylindolizin-7-ylamino)pyrimidin-2-ylamino)-2-(tetrahydro-2H-pyran-4-yloxy)phenyl)-4-methyl-1H-tetrazol-5(4H)-one], the EC50 is less than 0.5 µM under setting [1] and less than 10 µM under setting [2]. As to `Cn1nnn(-c2cc(Nc3ncc(F)c(N[C@@H]4C[C@@H]5CCCN5C(C)(C)C4)n3)ccc2O[C@H]2CCOC2)c1=O` [Compound 50, 1-(2-((S)-tetrahydrofuran-3-yloxy)-5-(5-fluoro-4-(octahydro-5,5-dimethylindolizin-7-ylamino)pyrimidin-2-ylamino)phenyl)-4-methyl-1H-tetrazol-5(4H)-one], the EC50 runs as follows: under setting [1], less than 0.1 µM; under setting [2], less than 10 µM.

Take `Cn1nnn(-c2cc(Nc3ncc(F)c(NC4CC5CCCN5C(C)(C)C4)n3)ccc2O[C@H]2CCOC2)c1=O` (stereo partly drawn) [Compound 49, 1-(2-((S)-tetrahydrofuran-3-yloxy)-5-(5-fluoro-4-(octahydro-5,5-dimethylindolizin-7-ylamino)pyrimidin-2-ylamino)phenyl)-4-methyl-1H-tetrazol-5(4H)-one]: the EC50 runs as follows: under setting [1], less than 0.1 µM; under setting [2], less than 10 µM. As to `Cn1nnn(-c2cc(Nc3ncc(F)c(NC4CCN5C(CCC5(C)C)C4)n3)c(F)cc2C2CC2)c1=O` (single isomer, unassigned) [Compound 34, 1-(5-(5-fluoro-4-(octahydro-3,3-dimethylindolizin-7-ylamino)pyrimidin-2-ylamino)-2-cyclopropyl-4-fluorophenyl)-4-methyl-1H-tetrazol-5(4H)-one], the EC50 under setting [1] is less than 10 µM and the EC50 under setting [2] was less than 10 µM.
